Test results as given in ChEMBL document CHEMBL1145673, “Assay method for antihepatotoxic activity using galactosamine-induced cytotoxicity in primary-cultured hepatocytes” (J Nat Prod, 1983).
Calls of active or inactive are those of the source. The calls are words filed in the database; no cut-off is given here.

What was measured:
[1] = test system: Hepatocyte; assay: Antihepatotoxic activity against 1.5 hrs galactosamine pretreatment-induced cytotoxicity in Wistar rat hepatocytes assessed as glutamic-pyruvic transaminase activity at 0.01 mg/ml after 30 hrs relative to control; assay type: functional
[2] = test system: Hepatocyte; assay: Antihepatotoxic activity against 1.5 hrs galactosamine pretreatment-induced cytotoxicity in Wistar rat hepatocytes assessed as glutamic-pyruvic transaminase activity at 0.1 mg/ml after 30 hrs relative to control; assay type: functional
[3] = test system: Hepatocyte; assay: Antihepatotoxic activity against 1.5 hrs galactosamine pretreatment-induced cytotoxicity in Wistar rat hepatocytes assessed as glutamic-pyruvic transaminase activity at 1 mg/ml after 30 hrs relative to control; assay type: functional
[4] = test system: Hepatocyte; assay: Cytotoxicity in Wistar rat hepatocytes assessed as glutamic-pyruvic transaminase activity at 0.01 mg/ml after 30 hrs; assay type: cell-based
[5] = test system: Hepatocyte; assay: Cytotoxicity in Wistar rat hepatocytes assessed as glutamic-pyruvic transaminase activity at 0.1 mg/ml after 30 hrs; assay type: cell-based
[6] = test system: Hepatocyte; assay: Cytotoxicity in Wistar rat hepatocytes assessed as glutamic-pyruvic transaminase activity at 1 mg/ml after 30 hrs; assay type: cell-based
[7] = test system: Hepatocyte; assay: Effect on 1.5 hrs galactosamine pretreatment-induced cytotoxicity in Wistar rat hepatocytes assessed as glutamic-pyruvic transaminase activity at 1 uM; assay type: functional
[8] = test system: Hepatocyte; assay: Effect on 1.5 hrs galactosamine pretreatment-induced cytotoxicity in Wistar rat hepatocytes at 1 uM; assay type: functional, cell-based

Compound	Activity [1]	Activity [2]	Activity [3]	Activity [4]	Activity [5]	Activity [6]	Activity [7]	Activity [8]
O=C(/C=C/c1ccc(O)c(O)c1)O[C@@H]1C[C@@](OC(=O)/C=C/c2ccc(O)c(O)c2)(C(=O)O)C[C@@H](O)[C@@H]1O [CYNARIN]	95%	84%	48%	20 IU/L	27 IU/L	51 IU/L		
COc1cc([C@@H]2c3cc4c(cc3C[C@H]3COC(=O)[C@@H]32)OCO4)cc(OC)c1OC [DESOXYPODOPHYLLOTOXIN]	93%	50%	92%	43 IU/L	35 IU/L	137 IU/L		
C[C@@H]1C[C@H]2[C@@H]3CCC4=CC(=O)C=C[C@]4(C)[C@@]3(F)[C@@H](O)C[C@]2(C)[C@@]1(O)C(=O)CO [DEXAMETHASONE]							96 IU/L	inactive
CC1(C)[C@@H](O)CC[C@]2(C)[C@H]3C(=O)C=C4[C@@H]5C[C@@](C)(C(=O)O)CC[C@]5(C)CC[C@@]4(C)[C@]3(C)CC[C@@H]12 [ENOXOLONE]		58%	27%	26 IU/L	16 IU/L	42 IU/L		
CC1(C)[C@@H](O[C@H]2O[C@H](C(=O)O)[C@@H](O)[C@H](O)[C@H]2O[C@@H]2O[C@H](C(=O)O)[C@@H](O)[C@H](O)[C@H]2O)CC[C@]2(C)[C@H]3C(=O)C=C4[C@@H]5C[C@@](C)(C(=O)O)CC[C@]5(C)CC[C@@]4(C)[C@]3(C)CC[C@@H]12 [GLYCYRRHIZIN]	103%	100%	24%	24 IU/L	59 IU/L	21 IU/L		
CSCC[C@H](N)C(=O)O [METHIONINE]	106%	113%	122%	24 IU/L	28 IU/L	25 IU/L		
COc1cc(C(=O)O[C@H]2[C@@H]3C=CO[C@@H](O[C@@H]4O[C@H](CO)[C@@H](O)[C@H](O)[C@H]4O)[C@@H]3[C@@]3(CO)O[C@@H]23)ccc1O [PICROSIDE II]	103%	101%	78%	27 IU/L	28 IU/L	40 IU/L		
O=C(/C=C/c1ccccc1)OC[C@H]1O[C@@H](O[C@@H]2OC=C[C@H]3[C@H](O)[C@@H]4O[C@]4(CO)[C@@H]23)[C@H](O)[C@@H](O)[C@@H]1O [PICROSIDE I]	96%	122%	111%	24 IU/L	50 IU/L	131 IU/L		
COc1cc(C2Oc3cc([C@H]4Oc5cc(O)cc(O)c5C(=O)[C@@H]4O)ccc3OC2CO)ccc1O (some centres undefined) [SILIBININ]	106%	103%	66%	29 IU/L	157 IU/L	93 IU/L		
